Results taken from ChEMBL document CHEMBL1201862, “PubChem BioAssay data set” (2004).
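96-well plates; 48 h exposure; 5 concentrations. Endpoints by linear interpolation between flanking doses. Not reached: highest tested concentration assigned. GI50: concentration for 50% inhibition of growth.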 Active and inactive are the calls of the source. No stated cut-off is given here; in the data, active = GI50 up to about 1.1 µM and inactive = higher.

Tests used:
Experiment in all cases: NCI-60 cell line screen, 48 h
SNB-75 = tested on: SNB-75
MDA-MB-435 = tested on: MDA-MB-435
CCRF-CEM = tested on: CCRF-CEM
KM12 = tested on: KM12
HL-60 = tested on: HL-60
SN12C = tested on: SN12C
SF-295 = tested on: SF-295
ACHN = tested on: ACHN
UACC-257 = tested on: UACC-257
SK-OV-3 = tested on: SK-OV-3
A498 = tested on: A498
NCI-H23 = tested on: NCI-H23
NCI-H226 = tested on: NCI-H226
HCC 2998 = tested on: HCC 2998
NCI-H522 = tested on: NCI-H522
MDA-MB-231 = tested on: MDA-MB-231
UO-31 = tested on: UO-31
SK-MEL-2 = tested on: SK-MEL-2
MCF7 = tested on: MCF7
HCT-116 = tested on: HCT-116
HCT-15 = tested on: HCT-15
HT-29 = tested on: HT-29
NCI-H460 = tested on: NCI-H460
SNB-19 = tested on: SNB-19
Malme-3M = tested on: Malme-3M
A549 = tested on: A549
IGROV-1 = tested on: IGROV-1
HOP-92 = tested on: HOP-92
OVCAR-4 = tested on: OVCAR-4
BT-549 = tested on: BT-549
786-0 = tested on: 786-0
NCI/ADR-RES = tested on: NCI/ADR-RES
CAKI-1 = tested on: CAKI-1
SW-620 = tested on: SW-620
MOLT-4 = tested on: MOLT-4
RXF 393 = tested on: RXF 393
HOP-62 = tested on: HOP-62
UACC-62 = tested on: UACC-62
COLO 205 = tested on: COLO 205
MDA-N = tested on: MDA-N
SK-MEL-28 = tested on: SK-MEL-28
SK-MEL-5 = tested on: SK-MEL-5
PC-3 = tested on: PC-3
K562 = tested on: K562
SF-539 = tested on: SF-539
OVCAR-3 = tested on: OVCAR-3
SR = tested on: SR
U-251 = tested on: U-251
OVCAR-8 = tested on: OVCAR-8
M14 = tested on: M14
OVCAR-5 = tested on: OVCAR-5
DU-145 = tested on: DU-145
LOX IMVI = tested on: LOX IMVI
RPMI-8226 = tested on: RPMI-8226
EKVX = tested on: EKVX
SF-268 = tested on: SF-268
TK-10 = tested on: TK-10
Hs-578T = tested on: Hs-578T

N/N=C(\Nc1ccccc1)SCc1ccccc1
GI50 (SNB-75): 41.7 µM (inactive) | GI50 (MDA-MB-435): > 100 µM (inactive) | GI50 (CCRF-CEM): > 100 µM (inactive) | GI50 (KM12): > 100 µM (inactive) | GI50 (HL-60): > 100 µM (inactive) | GI50 (SN12C): > 100 µM (inactive) | GI50 (SF-295): > 100 µM (inactive) | GI50 (ACHN): > 100 µM (inactive) | GI50 (UACC-257): > 100 µM (inactive) | GI50 (SK-OV-3): > 100 µM (inactive) | GI50 (A498): > 100 µM (inactive) | GI50 (NCI-H23): > 100 µM (inactive) | GI50 (NCI-H226): > 100 µM (inactive) | GI50 (HCC 2998): > 100 µM (inactive) | GI50 (NCI-H522): > 100 µM (inactive) | GI50 (MDA-MB-231): > 100 µM (inactive) | GI50 (UO-31): > 100 µM (inactive) | GI50 (SK-MEL-2): > 100 µM (inactive) | GI50 (MCF7): > 100 µM (inactive) | GI50 (HCT-116): > 100 µM (inactive) | GI50 (HCT-15): > 100 µM | GI50 (HT-29): > 100 µM (inactive) | GI50 (NCI-H460): > 100 µM (inactive) | GI50 (SNB-19): > 100 µM (inactive) | GI50 (Malme-3M): > 100 µM (inactive) | GI50 (A549): > 100 µM (inactive) | GI50 (IGROV-1): > 100 µM (inactive) | GI50 (HOP-92): > 100 µM (inactive) | GI50 (OVCAR-4): > 100 µM (inactive) | GI50 (BT-549): > 100 µM (inactive) | GI50 (786-0): > 100 µM (inactive) | GI50 (NCI/ADR-RES): > 100 µM (inactive) | GI50 (CAKI-1): > 100 µM (inactive) | GI50 (SW-620): > 100 µM (inactive) | GI50 (MOLT-4): > 100 µM (inactive) | GI50 (RXF 393): > 100 µM (inactive) | GI50 (HOP-62): > 100 µM (inactive) | GI50 (UACC-62): > 100 µM (inactive) | GI50 (COLO 205): > 100 µM (inactive) | GI50 (MDA-N): > 100 µM (inactive) | GI50 (SK-MEL-28): > 100 µM (inactive) | GI50 (SK-MEL-5): > 100 µM (inactive) | GI50 (PC-3): > 100 µM (inactive) | GI50 (K562): > 100 µM (inactive) | GI50 (SF-539): > 100 µM (inactive) | GI50 (OVCAR-3): > 100 µM (inactive) | GI50 (SR): > 100 µM (inactive) | GI50 (U-251): > 100 µM (inactive) | GI50 (OVCAR-8): > 100 µM (inactive) | GI50 (M14): > 100 µM (inactive) | GI50 (OVCAR-5): > 100 µM (inactive) | GI50 (DU-145): > 100 µM (inactive) | GI50 (LOX IMVI): > 100 µM (inactive) | GI50 (RPMI-8226): > 100 µM (inactive)

CC(=O)OCC1OC(n2c(-c3ccccc3)cc(-c3ccccc3)c(C#N)c2=O)C(OC(C)=O)C(OC(C)=O)C1OC(C)=O (stereo not given)
GI50 (RXF 393): 56 µM (inactive)

Cc1cc(C)nc(NS(=O)(=O)c2ccc(NC(=O)c3c4ccccc4nc4ccccc34)cc2)n1
GI50 (EKVX): > 100 µM (inactive) | GI50 (SNB-75): > 100 µM (inactive) | GI50 (MDA-MB-435): > 100 µM (inactive) | GI50 (SF-268): > 100 µM (inactive) | GI50 (CCRF-CEM): > 100 µM (inactive) | GI50 (KM12): 47 µM (inactive) | GI50 (SN12C): > 100 µM (inactive) | GI50 (SF-295): > 100 µM (inactive) | GI50 (ACHN): 84.7 µM (inactive) | GI50 (UACC-257): > 100 µM (inactive) | GI50 (SK-OV-3): > 100 µM (inactive) | GI50 (A498): > 100 µM (inactive) | GI50 (NCI-H23): 44.2 µM (inactive) | GI50 (NCI-H226): 35.9 µM (inactive) | GI50 (HCC 2998): > 100 µM (inactive) | GI50 (NCI-H522): 64.3 µM (inactive) | GI50 (MDA-MB-231): > 100 µM (inactive) | GI50 (UO-31): 37.4 µM (inactive) | GI50 (SK-MEL-2): > 100 µM (inactive) | GI50 (MCF7): > 100 µM (inactive) | GI50 (HCT-116): 68.4 µM (inactive) | GI50 (HCT-15): 65.9 µM | GI50 (HT-29): 50.8 µM (inactive) | GI50 (NCI-H460): > 100 µM (inactive) | GI50 (SNB-19): > 100 µM (inactive) | GI50 (Malme-3M): 17.4 µM (inactive) | GI50 (A549): > 100 µM (inactive) | GI50 (IGROV-1): 31.2 µM (inactive) | GI50 (HOP-92): > 100 µM (inactive) | GI50 (OVCAR-4): > 100 µM (inactive) | GI50 (BT-549): 96.4 µM (inactive) | GI50 (786-0): 49 µM (inactive) | GI50 (NCI/ADR-RES): > 100 µM (inactive) | GI50 (CAKI-1): 87.3 µM (inactive) | GI50 (TK-10): 82.2 µM (inactive) | GI50 (SW-620): > 100 µM (inactive) | GI50 (MOLT-4): > 100 µM (inactive) | GI50 (HOP-62): 61.7 µM (inactive) | GI50 (UACC-62): > 100 µM (inactive) | GI50 (COLO 205): 75.2 µM (inactive) | GI50 (MDA-N): > 100 µM (inactive) | GI50 (SK-MEL-28): > 100 µM (inactive) | GI50 (SK-MEL-5): 38.1 µM (inactive) | GI50 (PC-3): > 100 µM (inactive) | GI50 (K562): > 100 µM (inactive) | GI50 (SF-539): > 100 µM (inactive) | GI50 (OVCAR-3): 56.9 µM (inactive) | GI50 (SR): > 100 µM (inactive) | GI50 (U-251): 69.3 µM (inactive) | GI50 (OVCAR-8): 47.9 µM (inactive) | GI50 (M14): > 100 µM (inactive) | GI50 (OVCAR-5): > 100 µM (inactive) | GI50 (DU-145): 93.1 µM (inactive) | GI50 (LOX IMVI): 81.1 µM (inactive) | GI50 (RPMI-8226): 47.3 µM (inactive)

Nc1c2c(nc3ccccc13)-c1ccccc1CC2
GI50 (SF-268): 7.82 µM (inactive) | GI50 (CCRF-CEM): 3.4 µM (inactive) | GI50 (HL-60): 0.942 µM (active) | GI50 (SN12C): 4.06 µM (inactive) | GI50 (ACHN): 3.56 µM (inactive) | GI50 (UACC-257): 2.82 µM (inactive) | GI50 (A498): 3.16 µM (inactive) | GI50 (NCI-H23): 10.6 µM (inactive) | GI50 (NCI-H226): 12.1 µM (inactive) | GI50 (HCC 2998): 1.43 µM (inactive) | GI50 (NCI-H522): 8.67 µM (inactive) | GI50 (MDA-MB-231): 3.88 µM (inactive) | GI50 (SK-MEL-2): 11 µM (inactive) | GI50 (MCF7): 1.85 µM (inactive) | GI50 (HCT-116): 3.76 µM (inactive) | GI50 (HCT-15): 3.96 µM | GI50 (NCI-H460): 2.12 µM (inactive) | GI50 (Malme-3M): 8.49 µM (inactive) | GI50 (IGROV-1): 3.82 µM (inactive) | GI50 (HOP-92): 8.09 µM (inactive) | GI50 (BT-549): 13.2 µM (inactive) | GI50 (786-0): 3.52 µM (inactive) | GI50 (NCI/ADR-RES): 5.32 µM (inactive) | GI50 (TK-10): 3.96 µM (inactive) | GI50 (SW-620): 3.15 µM (inactive) | GI50 (MOLT-4): 2.38 µM (inactive) | GI50 (Hs-578T): 16.4 µM (inactive) | GI50 (UACC-62): 9.68 µM (inactive) | GI50 (COLO 205): 3.76 µM (inactive) | GI50 (MDA-N): 4.19 µM (inactive) | GI50 (SK-MEL-28): 10.4 µM (inactive) | GI50 (SK-MEL-5): 4.04 µM (inactive) | GI50 (PC-3): 3.59 µM (inactive) | GI50 (K562): 3.56 µM (inactive) | GI50 (SF-539): 3.24 µM (inactive) | GI50 (SR): 2.33 µM (inactive) | GI50 (U-251): 4.17 µM (inactive) | GI50 (OVCAR-8): 4.37 µM (inactive) | GI50 (LOX IMVI): 4.34 µM (inactive) | GI50 (RPMI-8226): 4.09 µM (inactive)
